The values below come from the OligoGym collection.

Series [1] has as its target HBV. To be noted: ASO.
Series [2] has as its target IRF5. To be noted: ASO, KARPAS-229, 4 µM.

Several values for one entry are separate records, joined by “and”; a condition that tells them apart may be missing. Identical values can stand only once. After the bases stand the sugars from the 5' end (letter, count) and the backbone: PS all phosphorothioate, else s phosphorothioate and o phosphodiester by linkage. HELM strings list units from the 5' end as sugar, base in round brackets, then linkage (d deoxyribose, r ribose, m 2'-O-methyl, p phosphodiester). Methylation of C is not given here. [moe] = 2'-O-(2-methoxyethyl) (MOE); [cEt] = constrained ethyl (cEt); [sp] = phosphorothioate linkage; e = 2'-O-(2-methoxyethyl) (MOE); k = constrained ethyl (cEt); d = 2'-deoxy (DNA)

With “RNA1{[moe](G)[sp].[moe](C)[sp].[moe](A)[sp].[moe](C)[sp].d(T)[sp].d(A)[sp].d(G)[sp].d(T)[sp].d(A)[sp].d(A)[sp].d(A)[sp].d(C)[sp].d(T)[sp].[moe](G)[sp].[moe](A)[sp].[moe](G)}$$$$V2.0”, the target mRNA inhibition in series [1] (HepG2, 0.07 µM) was 52% and 53%.

On to “RNA1{[moe](G)[sp].[moe](T)[sp].[moe](G)[sp].[moe](C)[sp].d(A)[sp].d(G)[sp].d(A)[sp].d(G)[sp].d(G)[sp].d(T)[sp].d(G)[sp].d(A)[sp].d(A)[sp].[moe](G)[sp].[moe](C)[sp].[moe](G)[sp].[moe](A)}$$$$V2.0”, for which the target mRNA inhibition in series [1] (HepG2, 0.07 µM) is 62% and 54%.

“RNA1{[moe](C)[sp].[cEt](C)[sp].[cEt](G)[sp].d(C)[sp].d(A)[sp].d(G)[sp].d(T)[sp].d(A)[sp].d(T)[sp].d(G)[sp].d(G)[sp].d(A)[sp].d(T)[sp].[cEt](C)[sp].[cEt](G)[sp].[moe](G)}$$$$V2.0”: in series [1] (HepG2, 0.07 µM), the target mRNA inhibition is 63% and 52%.

With “RNA1{[moe](G)[sp].[cEt](A)[sp].[cEt](G)[sp].d(G)[sp].d(C)[sp].d(A)[sp].d(T)[sp].d(A)[sp].d(G)[sp].d(C)[sp].d(A)[sp].d(G)[sp].d(C)[sp].[cEt](A)[sp].[cEt](G)[sp].[moe](G)}$$$$V2.0”, in series [1] (HepG2, 0.07 µM), the target mRNA inhibition is 64% and 67%.

Regarding “RNA1{[moe](A)[sp].[cEt](A)[sp].[moe](G)[sp].[cEt](C)[sp].d(G)[sp].d(A)[sp].d(A)[sp].d(G)[sp].d(T)[sp].d(G)[sp].d(C)[sp].d(A)[sp].d(C)[sp].[moe](A)[sp].[moe](C)[sp].[moe](G)[sp].[moe](G)}$$$$V2.0”, the target mRNA inhibition came to 29% in series [1] (HepG2, 0.009375 µM); 30% in series [1] (HepG2, 0.01875 µM); 41% in series [1] (HepG2, 0.0375 µM); 71% in series [1] (HepG2, 0.075 µM); 86% in series [1] (HepG2, 0.15 µM); 88% in series [1] (HepG2, 0.3 µM).

Take “RNA1{[moe](G)[sp].[moe](G)[sp].[moe](T)[sp].[moe](G)[sp].[moe](A)[sp].d(A)[sp].d(G)[sp].d(C)[sp].d(G)[sp].d(A)[sp].d(A)[sp].d(G)[sp].d(T)[sp].d(G)[sp].[moe](C)[sp].[moe](A)}$$$$V2.0”: the target mRNA inhibition in series [1] (HepG2, 0.07 µM) was 51% and 46%.

Consider “RNA1{[moe](A)[sp].[moe](G)[sp].[moe](T)[sp].d(T)[sp].d(C)[sp].d(C)[sp].d(G)[sp].d(C)[sp].d(A)[sp].d(G)[sp].d(T)[sp].d(A)[sp].[moe](T)[sp].[moe](G)[sp].[moe](G)[sp].[moe](A)}$$$$V2.0”, for which, in series [1] (HepG2, 0.07 µM), the target mRNA inhibition was 46% and 58%.

As to “RNA1{[moe](A)[sp].[cEt](G)[sp].[cEt](G)[sp].d(A)[sp].d(G)[sp].d(T)[sp].d(T)[sp].d(C)[sp].d(C)[sp].d(G)[sp].d(C)[sp].d(A)[sp].d(G)[sp].[cEt](T)[sp].[cEt](A)[sp].[moe](T)}$$$$V2.0”, the target mRNA inhibition in series [1] (HepG2, 0.0092593 µM) was 4%; in series [1] (HepG2, 0.0277778 µM), 35%; in series [1] (HepG2, 0.07 µM), 89% and 79%; in series [1] (HepG2, 0.0833333 µM), 70%; in series [1] (HepG2, 0.25 µM) it was 87%.

In the case of “RNA1{[moe](C)[sp].[moe](T)[sp].[moe](G)[sp].d(G)[sp].d(A)[sp].d(G)[sp].d(C)[sp].d(C)[sp].d(A)[sp].d(C)[sp].d(C)[sp].d(A)[sp].[moe](G)[sp].[moe](C)[sp].[moe](A)[sp].[moe](G)[sp].[moe](G)}$$$$V2.0”, the target mRNA inhibition in series [1] (HepG2, 0.07 µM) was 79% and 64%.

On to “RNA1{[moe](A)[sp].[cEt](A)[sp].d(C)[sp].d(T)[sp].d(G)[sp].d(G)[sp].d(A)[sp].d(G)[sp].d(C)[sp].d(C)[sp].d(A)[sp].d(C)[sp].[cEt](C)[sp].[moe](A)[sp].[cEt](G)[sp].[moe](C)}$$$$V2.0”, for which, in series [1] (HepG2, 0.07 µM), the target mRNA inhibition is 65% and 53%.

Consider “RNA1{[moe](A)[sp].[moe](A)[sp].[moe](C)[sp].[moe](T)[sp].[moe](G)[sp].d(G)[sp].d(A)[sp].d(G)[sp].d(C)[sp].d(C)[sp].d(A)[sp].d(C)[sp].d(C)[sp].d(A)[sp].[moe](G)[sp].[moe](C)}$$$$V2.0”, for which the target mRNA inhibition in series [1] (HepG2, 0.07 µM) was 50% and 39%.

With “RNA1{[moe](G)[sp].[moe](A)[sp].[moe](G)[sp].[moe](G)[sp].[moe](T)[sp].d(G)[sp].d(A)[sp].d(A)[sp].d(G)[sp].d(C)[sp].d(G)[sp].d(A)[sp].d(A)[sp].d(G)[sp].[moe](T)[sp].[moe](G)}$$$$V2.0”, the target mRNA inhibition in series [1] (HepG2, 0.07 µM) was 46% and 39%.

Substance “GTCTGGCCCTTTTGGA (sugars kkdddddddddkekek, PS)” had a target mRNA inhibition in series [2] of 0%.

“ATTTCTGCTCCAGGTT (sugars kkddddddddkekekk, PS)” yielded a target mRNA inhibition in series [2] of 6%.

In series [2], “CACATCTCCACATCAG (sugars kkdddddddddkekek, PS)” registered a target mRNA inhibition of 22%.

“TTGTCTAGTGTCATGG (sugars kkdddddddddkekek, PS)” gave a target mRNA inhibition in series [2] of 24%.

Turning to “AGATGGTGTTATCTCC (sugars kkdddddddddkekek, PS)”, in series [2], the target mRNA inhibition turned out to be 0%.

In series [2], TGAGACGAGCAAAGGG (sugars k3 d10 k3, PS) yielded a target mRNA inhibition of 22%.

Take “TTATTTCTGCTCCAGG (sugars kddddddddddkekek, PS)”: the target mRNA inhibition in series [2] came to 0%.

“TGCACTGACACAGGCG (sugars k3 d9 k3 e1, PS)” returned a target mRNA inhibition in series [2] of 0%.

CTTGATTCCAATTTTG (sugars k3 d10 k3, PS): in series [2], the target mRNA inhibition came out at 20%.

“AGGAGTGAGACGAGCA (sugars kkkdddddddddkeke, PS)” had a target mRNA inhibition in series [2] of 42%.

Take “GGTCTTTGAGGTCTGG (sugars kkddddddddkekekk, PS)”: in series [2], the target mRNA inhibition is 52%.

Regarding “TCACCACTGTGTACCC (sugars kkdddddddddkekek, PS)”, the target mRNA inhibition in series [2] stood at 0%.

“ATGAGTCATGGGCTGA (sugars k3 d9 k3 e1, PS)”: the target mRNA inhibition in series [2] worked out at 20%.

For “GTGTATTTCCCTGTCT (sugars k2 d8 e4 k2, PS)”, in series [2], the target mRNA inhibition worked out at 0%.

Substance “GTCTGGCCCTTTTGGA (sugars k2 d8 e4 k2, PS)” registered a target mRNA inhibition in series [2] of 0%.

As for “CTTCTGCAGGGAGTCA (sugars kkkddddddddkekek, PS)”, the target mRNA inhibition in series [2] is 0%.

Substance “TCACCACTGTGTACCC (sugars kkkddddddddkekek, PS)” had a target mRNA inhibition in series [2] of 0%.
